Results on four molecules are retold here after PMC9607282 (Pharmaceutics, 2022).

In brackets after ≈: the same amount, converted by molar mass. Like-named read-outs stand apart in the source and are kept apart here.

The conditions of data set [1]: six-month-old castrated boar ref 22; cited from earlier work.
Data set [2] deals with G. parasuis H78. In words: PK-PD integration, sigmoid Emax model on ex vivo time killing in PELF. To be noted: ADP/SMZ injection 5/25 mg/kg b.w. i.m. It counts as cell-based, Glaesserella parasuis. On the procedure: The association between antimicrobial efficiency and the ex vivo PK-PD parameters of AUC0−24h/MIC ratios was simulated by using the model of Emax inhibitory Sigmoid.

In data set [3] the test system is G. parasuis H78. The data set is described as follows: Post-antimicrobial effect (PAE). The data set is classed as cell-based, Glaesserella parasuis. On the procedure: (§1) The MIC and MBC of G. parasuis H78 in broth and pulmonary epithelial lining fluid (PELF) were determined by the broth dilution method according to the CLSI M07-A9 standard with some modifications. The MPC of G. parasuis H78 in broth was determined by the agar dilution method recommended by CLSI M07-A9. The post-antimicrobial effect (PAE) was determined by the method of bacterial and drug removal after incubation.

A short description of data set [4]: Pharmacokinetics in plasma and PELF of pigs infected with G. parasuis H78 after intramuscular injection. The data set is classed as in vivo. The settings on record: for T 1/2λ: infected group, ADP/SMZ injection 5/25 mg/kg b.w. i.m., n = 6; for Tmax: pig, im. Here is the method:
(§2) Twenty-four pigs were randomly divided into 4 groups with 3 healthy groups and 1 infected group. […] The infected group was infected with G. parasuis H78 for 3 days.
(§3) Add 3 mL of a mixture of dichloromethane and acetonitrile, and vortex centrifuge for 5 min at 10,000 rpm for 10 min. Remove the supernatant into a 10 mL centrifuge tube. Add 3 mL of dichloromethane and acetonitrile to the residue. Extract once again as described above. Combine the supernatant twice, and dissolve the residue with 1 mL of the initial mobile phase. Vortex to mix. Add 1 mL of n-hexane, remove the n-hexane layer (upper layer) to achieve the purpose of degreasing, and then use a 0.22-μm filter membrane to obtain a sample purification solution.
(§4) A C18 reverse phase column (250 mm × 4.6 mm, i.d., 5 µm, Agilent, Santa Clara, CA, USA) was used for HPLC, which was executed at a detection wavelength of 270 nm at 25 °C. The mobile phase comprised 0.1% trifluoroacetic acid (phase A) and 100% methanol (phase C) with a mobile phase flow rate of 1 mL/min.
(§5) The urea dilution method was used to determine the volume of PELF as described previously. The concentration of urea and PELF were determined by the urease-glutamate dehydrogenase enzymatic method with an automatic biochemical analyzer (SYNCHRON CX4 PRO; Beckman, Brea, CA, USA) at the National Reference Laboratory of Veterinary Drug Residues (Wuhan, China).

A short description of data set [5]: Adverse reactions after single intramuscular injection in pigs. To be noted: single dose ADP 5, SMZ 25, ADP/SMZ 5/25 mg/kg b.w. Here is the method:
as §2
A single dose of 5 mg/kg b.w., 25 mg/kg b.w., and 5/25 mg/kg b.w.

Data set [6] can be described thus: Pharmacokinetics in plasma and PELF of healthy pigs after intramuscular injection. It counts as in vivo. The settings on record: for T 1/2λ / AUC(0-t) / Cmax / Tmax / MRT last: n = 6; for AUC(0-t) / Cmax / Tmax / MRT last: pig, im; for AUC(0-t): AUC 24h; for MRT last: read-out: MRT 24h. Here is the method: as §2, §3, §4, §5
Data set [7] has as its system G. parasuis H78. In words: Mutant prevention concentration (MPC), agar dilution. It counts as cell-based, Glaesserella parasuis. On the procedure: as §1
In general terms: In agar dilution, organisms are placed on agar that contains the substance at set levels.

The subject of data set [8] is E. coli (ATCC 25922). In words: MIC quality control, agar dilution (CLSI M07-A9). The data set is classed as cell-based. The settings on record: Escherichia coli, ATCC25922, quality control strain. The text has this: E. coli (ATCC 25922) and chloramphenicol were used as quality control, and the experimental results were only valid when the MIC was within the quality control range.

Setting [9] is: PELF, PELF, healthy group, ADP/SMZ injection 5/25 mg/kg b.w. i.m.
Where [10] appears, read: PELF, PELF, healthy pigs, single drug i.m.: ADP 5 mg/kg b.w., SMZ 25 mg/kg b.w.
[11] abbreviates: plasma, plasma, healthy group, ADP/SMZ injection 5/25 mg/kg b.w. i.m.
The mark [12] stands for this setting: plasma, plasma, healthy pigs, single drug i.m.: ADP 5 mg/kg b.w., SMZ 25 mg/kg b.w.

In general, Tmax refers to the time from dosing to the highest level. What is called AUC(0-t) is the area under the concentration-time curve up to a stated or last time point. The Cmax is the peak of the concentration-time curve. The MIC is the lowest concentration found to suppress growth. A higher MIC goes with a need for much substance.

Regarding `COc1cc(Cc2cnc(N)nc2N)cc(OC)c1OC` [TMP, trimethoprim, reference compound], in data set [1], the apparent distribution volume is 1.4 L/kg and the elimination half-life is reported as 2.25 h.
Take `COc1cc(Cc2cnc(N)nc2N)cc(OC)c1N(C)C` [ADP, Aditoprim]: the entries for the “(AUC24h/MIC)ex (E = 0)” value in data set [2] (healthy group) and in data set [2] (infected group) were 32.25 h and 27.19 h, respectively. Also, the “(AUC24h/MIC)ex (E = −3)” value in data set [2] (healthy group) was 113.28 h; in data set [2] (infected group), 102.29 h. Further, the “(AUC24h/MIC)ex (E = −4)” value in data set [2] (healthy group) is listed as 221.41 h; in data set [2] (infected group), 204.17 h. Moreover, the entries for the “E 0” value in data set [2] (healthy group) and in data set [2] (infected group) were −4.78 Log10CFU/mL and −4.8 Log10CFU/mL, respectively. Moreover, the “EC 50 (AUC0−24h/MIC giving 50% of Emax)” value in data set [2] (healthy group) is recorded as 56.4 h; in data set [2] (infected group), 48.06 h. Also, the figures for the Emax in data set [2] (healthy group) and in data set [2] (infected group) were 2.07 Log10CFU/mL and 2.15 Log10CFU/mL, respectively. Also, the “Emax − E0” value in data set [2] (healthy group) was determined as 6.85 Log10CFU/mL; in data set [2] (infected group), 6.95 Log10CFU/mL. In addition, the figures for the “N (Hill coefficient)” value in data set [2] (healthy group) and in data set [2] (infected group) were 1.5 and 1.41, respectively. Moreover, the PAE in data set [3] (1 × MIC, exposure 1 h) turned out to be 0.02 h; in data set [3] (1 × MIC, exposure 2 h), 0.40 h; in data set [3] (2 × MIC, exposure 1 h), 0.11 h; in data set [3] (2 × MIC, exposure 2 h) it was 0.43 h; in data set [3] (4 × MIC, exposure 1 h), 0.20 h; in data set [3] (4 × MIC, exposure 2 h), 0.48 h. Also, the “T 1/2λ” value in data set [4] (PELF) came out at 6.48 ± 0.62 h; in data set [4] (plasma), 8.45 ± 0.61 h; in data set [6] (PELF, healthy group, ADP/SMZ injection 5/25 mg/kg b.w. i.m.), 6.05 ± 0.20 h; in data set [6] (PELF, healthy pigs, single drug i.m.: ADP 5 mg/kg b.w., SMZ 25 mg/kg b.w.), 6.42 ± 0.43 h; in data set [6] (plasma, healthy group, ADP/SMZ injection 5/25 mg/kg b.w. i.m.), 7.97 ± 0.81 h; in data set [6] (plasma, healthy pigs, single drug i.m.: ADP 5 mg/kg b.w., SMZ 25 mg/kg b.w.), 8.8 ± 0.53 h. Also, the Tmax in data set [4] (PELF) is 1.96 ± 0.05 h; in data set [4] (plasma), 2 h; in data set [6] (setting [9]), 1.95 ± 0.06 h; in data set [6] (setting [10]), 2 h; in data set [6] (setting [11]), 2 h; in data set [6] (setting [12]), 1 h. Moreover, in data set [5], the “adverse reactions after intramuscular injection” value is reported as “No serious adverse reactions”. Further, the “concentration in PELF after 36 h” value in data set [6] (LOD 0.05 µg/mL, HPLC) is recorded as “below LOD”. Moreover, in data set [6] (LOD 0.05 µg/mL, HPLC), the “concentration in plasma after 24 h” value is listed as “below LOD”. Besides, the AUC(0-t) amounted to 49100 ± 520 ng·h/mL in data set [6] (setting [9]), 44800 ± 540 ng·h/mL in data set [6] (setting [10]), 7710 ± 260 ng·h/mL in data set [6] (setting [11]) and 7590 ± 240 ng·h/mL in data set [6] (setting [12]). The Cmax in data set [6] (setting [9]) turned out to be 6780 ± 110 ng/mL; in data set [6] (setting [10]) it was 6880 ± 140 ng/mL; in data set [6] (setting [11]), 870 ± 90 ng/mL; in data set [6] (setting [12]), 920 ± 80 ng/mL. Further, the MRT last in data set [6] (setting [9]) is 6.88 ± 0.11 h; in data set [6] (setting [10]), 6.43 ± 0.09 h; in data set [6] (setting [11]), 7.76 ± 0.26 h; in data set [6] (setting [12]) it was 7.63 ± 0.27 h. Besides, in data set [1], the apparent distribution volume is reported as more than 1.4 L/kg. Besides, the elimination half-life in data set [1] is more than 2.25 h. This molecule gave an MPC in data set [7] of 20 µg/mL.
Regarding `Cc1cc(NS(=O)(=O)c2ccc(N)cc2)no1` [SMZ, Sulfamethoxazole, reference compound], in data set [2] (healthy group), the “E 0” value is −4.4 Log10CFU/mL, the Emax is listed as 2.3 Log10CFU/mL, the “Emax − E0” value is on record as 6.7 Log10CFU/mL and the “N (Hill coefficient)” value was 1.56. Besides, in data set [2] (infected group), the “E 0” value is listed as −4.55 Log10CFU/mL, the Emax is listed as 2.36 Log10CFU/mL and the “N (Hill coefficient)” value came out at 1.52. Also, the “adverse reactions after intramuscular injection” value in data set [5] is “No serious adverse reactions”.
In data set [8], `O=C(N[C@H](CO)[C@H](O)c1ccc([N+](=O)[O-])cc1)C(Cl)Cl` [chloramphenicol] registered an MIC of 4 µg/mL (≈ 12.4 µM).
